Data taken from patent US20260306460A1, “COMPOSITION FOR REMOVING AND INHIBITING SENESCENT CELLS, AND USES THEREOF” (LIFECEUTIX CO., LTD., priority 2023, published 2026).

Key:
naturally aged mice = assay: Anti-aging evaluation in naturally aged mice, Example 31, Table 55; assay type: in vivo, mouse; conditions: for Femur Ctsk mRNA / Kidney Agtr1a mRNA / Liver IL6 mRNA / Liver MMP3 mRNA / Liver p16 mRNA / Open Field Test Time in Center: untreated = 100%; for Heart Sur2a mRNA / Joint Col2a1 mRNA / Skin Col1a1 mRNA / Skin SDF1 mRNA: untreated = 1.0; for Muscle Mass: untreated 0.64 g; for Fat Mass: untreated 0.82 g; for Cataract incidence: untreated 83%;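 as to all read-outs here: Vehicle-dosed control mice received solution alone at matching volume, values compare test-compound-treated aged mice against that control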
[1] = test system: carbon tetrachloride-induced liver fibrosis mice; assay: Carbon tetrachloride-induced liver fibrosis mice, Example 31, Table 57; assay type: in vivo, mouse; conditions: CCl4-induced liver fibrosis mice, untreated = 100%
Protocol: (§1) The control group was administered only the solution in the same volume. After the end of drug administration, the method described in each example below was performed. Liver, kidney, skin, knee joint, heart, and femur tissues were collected from mice in which natural aging was induced in the same manner as in Examples 7-2 and 7-6 of WO2023-085787 A1. Lung tissues were collected from mice in which pulmonary fibrosis was induced using the same method as in Example 24-1. Liver tissues were collected from mice in which hepatic fibrosis was induced using the same method as in Example 26, and total RNA was extracted. qRT-PCR was performed and analyzed using the synthesized cDNA. […] The mRNA amounts of p16, MMP3, and IL6 after natural aging was induced were calculated as 100% and compared with the mRNA amounts of p16, MMP3, and IL6 after treatment with the test compound. In addition, an open field test for the analysis of aging-related frailty, agtr1a mRNA analysis for kidney damage and disease evaluation, col1a1 and SDF1 mRNA analysis for skin aging evaluation such as wrinkles/loss of elasticity/hyperpigmentation, col2a1 mRNA analysis for evaluating joint aging such as osteoarthritis, sur2a mRNA analysis for evaluating cardiac aging such as decreased cardiac load resistance, ctsk mRNA analysis for evaluating bone diseases due to aging such as osteoporosis, muscle tissue weight for analyzing sarcopenia, fat tissue weight for analyzing lipoatrophy, and cataract incidence analysis were performed in mice. For cataract incidence analysis, the drug was administered twice a week under the conditions specified above, and biweekly examinations were conducted until death.

[2] = test system: bleomycin-induced pulmonary fibrosis mice; assay: Bleomycin-induced pulmonary fibrosis mice, Example 31, Table 56; assay type: in vivo, mouse; conditions: untreated = 100%
Protocol: as §1
The table below quantitatively presents the evaluation results for each item in mice with bleomycin-induced pulmonary fibrosis, untreated and treated with the test compound.

senescent A549 cells = assay: Viability of senescent A549 cells (CellTiter-Glo), Example 18, Table 15; conditions: Homo sapiens, A549, read-out: Survival (%)
Protocol: Senescence-induced cancer cells treated with doxorubicin were treated with the test compound at designated concentrations, and cell viability was measured using the CellTiter-Glo Luminescent Cell Viability Assay (Promega).

senescent cells = assay: Viability of senescent cells (CellTiter-Glo), Example 17, Table 13; conditions: Homo sapiens, read-out: Survival (%)
Protocol: Cells induced to undergo senescence by doxorubicin treatment were treated with test compound at designated concentrations and measured using the CellTiter-Glo Luminescent Cell Viability Assay (Promega).

SMILES	Femur Ctsk mRNA (naturally aged mice)	Heart Sur2a mRNA (naturally aged mice)	Joint Col2a1 mRNA (naturally aged mice)	Kidney Agtr1a mRNA (naturally aged mice)	Liver IL6 mRNA (naturally aged mice)	Liver MMP3 mRNA (naturally aged mice)	Liver p16 mRNA (naturally aged mice)	Open Field Test Time in Center (naturally aged mice)	Skin Col1a1 mRNA (naturally aged mice)	Skin SDF1 mRNA (naturally aged mice)	Muscle Mass (naturally aged mice)	Fat Mass (naturally aged mice)	Cataract incidence (naturally aged mice)	Liver p16 mRNA [1]	Col1a1 mRNA [1]	Lung p16 mRNA [2]	Col1a1 mRNA [2]	viability at 1.1 µM (senescent A549 cells)	viability at 10 µM (senescent A549 cells)	viability at 1.1 µM (senescent cells)	also measured
C[S+]([O-])CCCCN=C=S (centres unmarked) [LX-7103, Sulforaphane]	65%	2.1 fold	2.3 fold	67%	67%	79%	65%	218%	2.6 Fold	2.6 fold	0.67 g	0.96 g	69%	70 (±2.2) %	68 (±2.9) %	65 (±2.1) %	66 (±4.5) %	102%	37.6%	84.3%	viability at 30 µM (senescent A549 cells): 4.1%; viability at 10 µM (senescent cells): 7.9%
CN(NC(=O)CC(=O)NN(C)C(=S)c1ccccc1)C(=S)c1ccccc1 [LX-6501, Elesclomol]	64%	1.8 fold	2.7 fold	49%	46%	56%	38%	214%	1.9 Fold	2.2 fold	0.71 g	0.89 g	48%	34 (±3.0) %	75 (±2.5) %	68 (±4.4) %	75 (±5.3) %	97%	62.4%	94.5%	viability at 30 µM (senescent A549 cells): 13%; viability at 10 µM (senescent cells): 71.5%; viability at 30 µM (senescent cells): 7.8%
C[C@@H](Nc1nc(N[C@H](C)C(F)(F)F)nc(-c2cccc(Cl)n2)n1)C(F)(F)F [LX-8726, Vorasidenib]	25%	2.9 fold	2.4 fold	48%	25%	64%	61%	276%	2.8 Fold	2.7 fold	0.81 g	1.20 g	43%	36 (±4.3) %	48 (±4.3) %	42 (±2.9) %	58 (±5.3) %	71.7%	17.5%	52.3%	
